Experimental findings from patent publication US8946203B2, “Benzodioxane inhibitors of leukotriene production” (Boehringer Ingelheim International GmbH, priority 2012, dated 2015) are described below.

Assay [1] concerns synthesis of LTB4 in human whole blood. Nature of the assay: human whole blood (HWB) assay, LTB4 production inhibition after calcimycin stimulation. Format: cell-based. Particulars: heparinized human whole blood, calcimycin 20 μM, plasma LTB4 by HTRF. Here is the method: The compounds of the invention are additionally tested in a human whole blood (HWB) assay to determine their ability to inhibit the synthesis of LTB4 in a cellular system. Compounds are combined with heparinized human whole blood and incubated for 15 minutes at 37° C. Calcimycin (20 μM final, prepared in phosphate-buffered saline, pH 7.4) is then added and the mixture is incubated for another 30 minutes at 37° C. The samples are centrifuged for 5 min at low speed (1500×g) and the plasma layer is removed. Plasma LTB4 concentrations are then measured using an antibody-based homogenous time-resolved fluorescence method (CisBio, Bedford, Mass.). In general, the preferred potency range (IC50) of compounds in the HWB assay is between 10 nM to 10 μM, the more preferred potency range is 10 nM to 1 μM, and the most preferred potency range is 10 nM to 100 nM.
A general note: TR-FRET usually uses a lanthanide donor and a delayed reading to cut background.

The target in the next assay is T1, human LTA4 hydrolase (Homo sapiens, UniProt P09960).
T1 sequence (P09960 1-611): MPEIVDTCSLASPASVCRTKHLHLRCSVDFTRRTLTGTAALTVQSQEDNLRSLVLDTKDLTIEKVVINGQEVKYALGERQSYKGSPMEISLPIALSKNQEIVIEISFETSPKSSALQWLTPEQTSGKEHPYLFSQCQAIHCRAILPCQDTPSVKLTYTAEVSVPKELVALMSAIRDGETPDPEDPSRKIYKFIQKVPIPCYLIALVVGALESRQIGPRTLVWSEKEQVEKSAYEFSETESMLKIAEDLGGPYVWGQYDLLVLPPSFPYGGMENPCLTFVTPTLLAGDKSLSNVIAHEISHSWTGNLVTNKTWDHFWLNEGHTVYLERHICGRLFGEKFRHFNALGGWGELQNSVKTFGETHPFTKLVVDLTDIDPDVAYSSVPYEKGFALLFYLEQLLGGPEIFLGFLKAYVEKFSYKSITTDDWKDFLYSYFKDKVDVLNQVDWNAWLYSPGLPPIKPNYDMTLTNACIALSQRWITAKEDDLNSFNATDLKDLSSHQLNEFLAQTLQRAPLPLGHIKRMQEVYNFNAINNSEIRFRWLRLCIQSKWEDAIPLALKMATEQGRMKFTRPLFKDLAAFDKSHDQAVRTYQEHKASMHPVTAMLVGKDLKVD
As to the kind of experiment: LTA4H Enzyme assay (cleavage of Arg-AMC, fluorescence). The note with it: LTA4H Enzyme 1 nM, Arg-AMC substrate 50 μM, room temperature 1 h, fluorescence; read-out: IC50 values of LTA4H Enzyme assay. The class given is biochemical. A digest of the protocol: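 Peptidase activity of human LTA4H (1 nM final) on Arg-AMC (50 μM final), with compound, 1 h at room temperature. Buffer: 50 mM Tris-HCl pH 7.5, 100 mM KCl, 0.5% BSA.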

For orientation: pIC50 means the negative decadic logarithm of the IC50, by convention in mol/L.

pIC50: −log10 of the molar value. Counter-ions that a name gives are not always drawn.

`CS(=O)(=O)NC1CCN(Cc2ccc([C@H]3COc4cccnc4O3)cc2)CC1` [Example 190, N-(1-{4-[(3S)-2,3-dihydro[1,4]dioxino[2,3-b]pyridin-3-yl]benzyl}piperidin-4-yl)methanesulfonamide]: the figures for the pIC50 (in assay [1]; at human LTA4 hydrolase) were 7.59 and 10.05, respectively.

As to `O=C(O)C1CCN(Cc2ccc([C@H]3COc4ccccc4O3)cc2)CC1` [Example 200, (S)-1-[4-(2,3-dihydro-benzo[1,4]dioxin-2-yl)-benzyl]-piperidine-4-carboxylic acid], the pIC50 in assay [1] was 7.08; at human LTA4 hydrolase, 9.92.

Consider `c1cnc2c(c1)OC[C@H](c1ccc(CN3CCOCC3)cc1)O2` [Example 204, (S)-3-(4-Morpholin-4-ylmethyl-phenyl)-2,3-dihydro-[1,4]dioxino[2,3-b]pyridine], for which the pIC50 in assay [1] is 7.02; at human LTA4 hydrolase, 9.82.

Regarding `O=C(O)[C@@H]1CCN(Cc2ccc([C@H]3COc4ccccc4O3)cc2)C1` [Example 214, (3R)-1-{4-[(2S)-2,3-dihydro-1,4-benzodioxin-2-yl]benzyl}pyrrolidine-3-carboxylic acid], the pIC50 in assay [1] was 6.77; at human LTA4 hydrolase, 9.33.

Consider `COCC(=O)NC1CCN(Cc2ccc([C@H]3COc4ccccc4O3)cc2)CC1` [Example 219, N-(1-{4-[(2S)-2,3-dihydro-1,4-benzodioxin-2-yl]benzyl}piperidin-4-yl)-2-methoxyacetamide], for which the pIC50 in assay [1] was 6.83; at human LTA4 hydrolase it was 9.31.

As for `CC(C)(O)C(=O)NC1CCN(Cc2ccc([C@H]3COc4ccccc4O3)cc2)CC1` [Example 220, N-(1-{4-[(2S)-2,3-dihydro-1,4-benzodioxin-2-yl]benzyl}piperidin-4-yl)-2-hydroxy-2-methylpropanamide], the figures for the pIC50 (in assay [1]; at human LTA4 hydrolase) were 7.04 and 9.33, respectively.

As for `CC(c1ccc([C@H]2COc3ccccc3O2)cc1)N1CCC(C(=O)O)CC1` (stereo partly drawn) [Example 227, 1-{1-[(S)-4-(2,3-dihydro-benzo[1,4]dioxin-2-yl)-phenyl]-ethyl}-piperidine-4-carboxylic acid], the pIC50 in assay [1] is 6.51; at human LTA4 hydrolase it was 8.85.

As for `CC(C)(C(=O)O)C1CCN(Cc2ccc([C@H]3COc4ccccc4O3)cc2)CC1` [Example 229, 2-{1-[(S)-4-(2,3-Dihydro-benzo[1,4]dioxin-2-yl)-benzyl]-piperidin-4-yl}-2-methyl-propionic acid formate salt], the pIC50 was 6.54 in assay [1] and 8.41 at human LTA4 hydrolase.

Regarding `O=C(O)c1ccc(CC2CCN(Cc3ccc([C@H]4COc5cccnc5O4)cc3)CC2)cc1` [Example 234, 4-[(1-{4-[(3S)-2,3-dihydro[1,4]dioxino[2,3-b]pyridin-3-yl]benzyl}piperidin-4-yl)methyl]benzoic acid], the pIC50 was 7.02 in assay [1] and 9.85 at human LTA4 hydrolase.

In the case of `CCCCN(Cc1ccc(C(=O)O)cc1)Cc1ccc([C@H]2COc3ccccc3O2)cc1` [Example 237, 4-[(butyl{4-[(2S)-2,3-dihydro-1,4-benzodioxin-2-yl]benzyl}amino)methyl]benzoic acid], the pIC50 in assay [1] was 7.02; at human LTA4 hydrolase it was 9.09.

`CCOC(=O)c1nnc2n1CCN(Cc1ccc([C@H]3COc4cccnc4O3)cc1)C2` [Example 240, 7-[(S)-4-(2,3-dihydro-[1,4]dioxino[2,3-b]pyridin-3-yl)-benzyl]-5,6,7,8-tetrahydro-[1,2,4]triazolo[4,3-a]pyrazine-3-carboxylic acid ethyl ester]: the pIC50 in assay [1] was 6.85; at human LTA4 hydrolase it was 9.25.

With `NC(=O)c1nnc2n1CCN(Cc1ccc([C@H]3COc4cccnc4O3)cc1)C2` [Example 241, 7-[(S)-4-(2,3-Dihydro-[1,4]dioxino[2,3-b]pyridin-3-yl)-benzyl]-5,6,7,8-tetrahydro-[1,2,4]triazolo[4,3-a]pyrazine-3-carboxylic acid amide], the pIC50 in assay [1] was 6.96; on human LTA4 hydrolase it was 9.30.

For the compound `CNC(=O)c1nnc2n1CCN(Cc1ccc([C@H]3COc4cccnc4O3)cc1)C2` [Example 242, 7-[(S)-4-(2,3-dihydro-[1,4]dioxino[2,3-b]pyridin-3-yl)-benzyl]-5,6,7,8-tetrahydro-[1,2,4]triazolo[4,3-a]pyrazine-3-carboxylic acid methylamide], the pIC50 is 6.77 in assay [1] and 9.22 on human LTA4 hydrolase.

For the compound `NC(=O)c1cn2c(n1)CN(Cc1ccc([C@H]3COc4cccnc4O3)cc1)CC2` [Example 243, 7-[(S)-4-(2,3-dihydro-[1,4]dioxino[2,3-b]pyridin-3-yl)-benzyl]-5,6,7,8-tetrahydro-imidazo[1,2-a]pyrazine-2-carboxylic acid amide], the pIC50 in assay [1] was 7.00; at human LTA4 hydrolase, 9.38.

As to `CNC(=O)c1cn2c(n1)CN(Cc1ccc([C@H]3COc4cccnc4O3)cc1)CC2` [Example 244, 7-[(S)-4-(2,3-dihydro-[1,4]dioxino[2,3-b]pyridin-3-yl)-benzyl]-5,6,7,8-tetrahydro-imidazo[1,2-a]pyrazine-2-carboxylic acid methylamide], the pIC50 in assay [1] is 6.92; at human LTA4 hydrolase it was 9.59.

On to `NC(=O)c1nnc2n1CCN(Cc1ccc([C@H]3COc4cccnc4O3)cc1)CC2` [Example 245, 6-[(S)-4-(2,3-dihydro-[1,4]dioxino[2,3-b]pyridin-3-yl)-benzyl]-5,6,7,8-tetrahydro-4H-1,2,3a,6-tetraaza-azulene-3-carboxylic acid amide], for which the pIC50 in assay [1] is 6.89; on human LTA4 hydrolase, 9.49.

For `CNC(=O)c1nnc2n1CCN(Cc1ccc([C@H]3COc4cccnc4O3)cc1)CC2` [Example 246, 6-[(S)-4-(2,3-Dihydro-[1,4]dioxino[2,3-b]pyridin-3-yl)-benzyl]-5,6,7,8-tetrahydro-4H-1,2,3a,6-tetraaza-azulene-3-carboxylic acid methylamide], the pIC50 in assay [1] was 7.04; on human LTA4 hydrolase it was 9.54.

With `C[C@H](O)CNC(=O)[C@H]1[C@@H]2CN(Cc3ccc([C@H]4COc5cccnc5O4)cc3)C[C@@H]21` [Example 247, [(1α,5α,6α)-3-[(S)-4-(2,3-dihydro-[1,4]dioxino[2,3-b]pyridin-3-yl)-benzyl]-3-aza-bicyclo[3.1.0]hexane]-6-carboxylic acid ((S)-2-hydroxy-propyl)-amide], the pIC50 in assay [1] is 7.17; at human LTA4 hydrolase, 9.77.

Take `C[C@@H](CO)NC(=O)[C@H]1[C@@H]2CN(Cc3ccc([C@H]4COc5cccnc5O4)cc3)C[C@@H]21` [Example 248, [(1α,5α,6α)-3-[(S)-4-(2,3-Dihydro-[1,4]dioxino[2,3-b]pyridin-3-yl)-benzyl]-3-aza-bicyclo[3.1.0]hexane]-6-carboxylic acid ((S)-2-hydroxy-1-methyl-ethyl)-amide]: the pIC50 in assay [1] was 7.24; at human LTA4 hydrolase, 9.77.

As to `N#Cc1cnc2n1CCN(Cc1ccc([C@H]3COc4cccnc4O3)cc1)C2` [Example 249, 7-[(S)-4-(2,3-Dihydro-[1,4]dioxino[2,3-b]pyridin-3-yl)-benzyl]-5,6,7,8-tetrahydro-imidazo[1,2-a]pyrazine-3-carbonitrile], the pIC50 in assay [1] is 7.24; on human LTA4 hydrolase, 9.60.

Regarding `CC(=O)N[C@H]1[C@@H]2CN(Cc3ccc([C@H]4COc5cccnc5O4)cc3)C[C@@H]21` [Example 250, N-{(1α,5α,6α)-3-[(S)-4-(2,3-Dihydro-[1,4]dioxino[2,3-b]pyridin-3-yl)-benzyl]-3-aza-bicyclo[3.1.0]hex-6-yl}-acetamide], the results for the pIC50 (in assay [1]; at human LTA4 hydrolase) were 7.08 and 9.25, respectively.

As to `CC(C)(O)CNC(=O)[C@H]1[C@@H]2CN(Cc3ccc([C@H]4COc5cccnc5O4)cc3)C[C@@H]21` [Example 251, [(1α,5α,6α)-3-[(S)-4-(2,3-Dihydro-[1,4]dioxino[2,3-b]pyridin-3-yl)-benzyl]-3-aza-bicyclo[3.1.0]hexane-6-carboxylic acid (2-hydroxy-2-methyl-propyl)]-amide], the pIC50 in assay [1] was 7.20; at human LTA4 hydrolase, 9.80.

As to `COCC(=O)NC1CCN(Cc2ccc([C@H]3COc4cccnc4O3)cc2)CC1` [Example 252, N-{1-[(S)-4-(2,3-Dihydro-[1,4]dioxino[2,3-b]pyridin-3-yl)-benzyl]-piperidin-4-yl}-2-methoxy-acetamide], the results for the pIC50 (in assay [1]; at human LTA4 hydrolase) were 7.38 and 9.82, respectively.
